Measurements from patent publication US6815440B2, “Cyclic and heterocyclic N-substituted α-iminohydroxamic and -carboxylic acids” (Aventis Pharma Deutschland GmbH, priority 1995, dated 2004).
pIC50: −log10 of the molar value. Where two headings read alike, the source gives them in different places.

How the values were obtained:
[1] = molecular target: T1, catalytic domain of neutrophil collagenase (Homo sapiens, UniProt P22894); assay: Enzyme inhibition, catalytic domain of neutrophil collagenase (fluorogenic substrate); type: biochemical; conditions: read-out: Neutrophil collagenase IC 50
T1 construct: enzymatic activity of the catalytic domains of human stomelysine and of neutrophil collagenase; made in house
T1 sequence (P22894 100-262 limits assumed): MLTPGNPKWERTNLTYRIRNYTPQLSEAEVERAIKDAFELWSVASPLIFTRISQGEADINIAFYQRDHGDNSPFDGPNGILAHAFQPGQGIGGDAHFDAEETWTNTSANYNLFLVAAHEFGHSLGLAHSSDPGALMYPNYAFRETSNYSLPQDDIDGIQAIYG
Description: (§1) Preparation and determination of the enzymatic activity of the catalytic domains of human stomelysine and of neutrophil collagenase.
(§2) The two enzymes were prepared according to Ye et al., (Biochemistry 31 (1992) 11231-5). To measure the enzyme activity or enzyme inhibitor action, 70 μl of buffer solution and 10 μl of enzyme solution are incubated for 15 minutes with 10 μl of a 10% strength (v/v) aqueous dimethyl sulfoxide solution, which optionally contains the enzyme inhibitor. After addition of 10 μl of a 10% strength (v/v) aqueous dimethyl sulfoxide solution which contains 1 mmol/l of the substrate, the enzyme reaction is monitored by fluorescence spectroscopy (328 nm (ex)/393 nm(em)). The enzyme activity is shown as extinction increase/minute. […] The buffer solution contains 0.05% of Brij (Sigma, Deisenhofen, Germany) and also 0.1 mol/l of tris/HCl, 0.1 mol/l of NaCl, 0.01 mol/l of CaCl2 (pH=7.5) for the determination of the hydroxamic acids up to and including Example 33, or, for the determination of the carboxylic acids from Example 34, 0.1 mol/l of piperazine-N,N′-bis[2-ethanesulfonic acid] pH=6.5.
(§3) The enzyme solution contains 5 μg/ml of one of the enzyme domains prepared according to Ye et al. The substrate solution contains 1 mmol/l of the fluorogenic substrate (7-methoxycoumarin-4-yl)acetyl-Pro-Leu-Gly-Leu-3-(2′,4′-dinitrophenyl)-L-2,3-diaminopropionyl-Ala-Arg-NH2 (Bachem, Heidelberg, Germany).

[2] = molecular target: T2, catalytic domain of human stromelysine (Homo sapiens, UniProt P08254); assay: Enzyme inhibition, catalytic domain of human stromelysine (fluorogenic substrate); type: biochemical; conditions: read-out: Stromelysine IC 50
T2 construct: enzymatic activity of the catalytic domains of human stomelysine and of neutrophil collagenase; made in house
T2 sequence (P08254 100-272 limits assumed): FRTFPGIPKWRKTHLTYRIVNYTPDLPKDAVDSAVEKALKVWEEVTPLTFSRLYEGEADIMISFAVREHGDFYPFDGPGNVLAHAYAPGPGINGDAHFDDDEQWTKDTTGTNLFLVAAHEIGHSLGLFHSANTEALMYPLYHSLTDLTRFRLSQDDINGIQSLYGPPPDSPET
Description: as §1, §2, §3

[3] = carboxylic acids from Example 34, piperazine-N,N'-bis[2-ethanesulfonic acid] buffer pH=6.5
[4] = hydroxamic acids up to and including Example 33, tris/HCl buffer pH=7.5

| pIC50 [1, 3] | pIC50 [2, 3] | melting point | pIC50 [1, 4] | pIC50 [2, 4] | Structure (SMILES) |
| --- | --- | --- | --- | --- | --- |
| 9.00 | 7.00 | 122 to 135 °C | – | – | CN(C)c1ccc(-c2ccc(S(=O)(=O)N3Cc4ccccc4C[C@@H]3C(=O)O)cc2)cc1.Cl [Example 39] |
| – | – | – | 6.70 | 5.52 | COc1ccc(CC(=O)Nc2cccc(S(=O)(=O)N3Cc4ccccc4CC3C(=O)NO)c2)cc1 (centres unmarked) [Example 8] |
| 6.52 | 5.52 | 218 to 219 °C | – | – | O=C(O)[C@H]1Cc2ccccc2CN1S(=O)(=O)c1ccc2oc3ccccc3c2c1 [Example 46] |
| 7.00 | 5.70 | 115 °C | – | – | O=C(O)[C@H]1Cc2c([nH]c3ccccc23)CN1S(=O)(=O)c1ccc(Oc2ccccc2)cc1 [Example 57] |
| – | – | – | – | 6.52 | O=C(NO)C1Cc2ccccc2CN1S(=O)(=O)c1ccccc1 (centres unmarked) [Example 1] |
| 7.70 | 6.30 | 167 to 168 °C | – | – | O=C(O)[C@H]1Cc2ccccc2CN1S(=O)(=O)c1ccc(Oc2ccc(Cl)cc2)cc1 [Example 42, R-2-[4-(4-chlorophenoxy)benzenesulfonyl]-1,2,3,4-tetrahydroisoquinoline-3-carboxylic acid] |
| – | – | – | – | 7.00 | O=C(NO)C1Cc2ccccc2CN1S(=O)(=O)CCc1ccccc1 (centres unmarked) [Example 17] |
| 8.30 | 7.00 | 207 to 209 °C | – | – | O=C(O)[C@H]1Cc2ccccc2CN1S(=O)(=O)c1ccc(-c2ccc(Cl)cc2)cc1 [Example 35] |
| – | – | 211 to 213 °C | – | – | O=C(O)[C@H]1Cc2ccccc2CN1S(=O)(=O)c1ccc(-c2nc3ccccc3o2)cc1 [Example 47] |
| – | – | 142 °C | 6.15 | 5.70 | COc1ccc(S(=O)(=O)N2c3ccccc3CC2C(=O)NO)cc1 (centres unmarked) [Example 28, 1-(4-Methoxybenzenesulfonyl)indoline-2-hydroxamic acid] |
| 8.05 | 6.70 | 147 °C | – | – | O=C(O)[C@H]1Cc2ccccc2CN1S(=O)(=O)c1ccc(Oc2ccccc2)cc1 [41 (13b), R-2-(4-phenoxybenzenesulfonyl)-1,2,3,4-tetrahydroisoquinoline-3-carboxylic acid] |
| – | – | – | 7.52 | 6.30 | CCOC(=O)Nc1ccc(S(=O)(=O)N2Cc3ccccc3CC2C(=O)NO)cc1 (centres unmarked) [Example 6] |
| 6.70 | 4.70 | – | – | – | O=C(O)[C@H]1Cc2ccccc2CN1S(=O)(=O)c1ccc(Sc2ccccc2)cc1 [Example 43] |
| – | – | – | 8.10 | 7.52 | COc1ccc(S(=O)(=O)Oc2ccc3c(c2)CN(S(=O)(=O)c2ccc(OC)cc2)[C@@H](C(=O)NO)C3)cc1 [Example 22] |
| – | – | 166 °C | 7.70 | 7.22 | COc1ccc(S(=O)(=O)N2Cc3cc4c(cc3CC2C(=O)NO)OCO4)cc1 (centres unmarked) [Example 24, 2-(4-Methoxybenzenesulfonyl)-6,7-methylenedioxy-1,2,3,4-tetrahydroisoquinoline-3-hydroxamic acid] |
| 5.52 | – | – | – | – | O=C(O)[C@@H]1Cc2ccccc2CN1S(=O)(=O)c1ccc(-c2ccc(Cl)cc2)cc1 [Example 36] |
| – | – | – | 8.40 | 7.52 | COc1ccc(S(=O)(=O)N2CCc3cc4c(cc3C2C(=O)NO)CCC4)cc1 (centres unmarked) [Example 27] |

| pIC50 [1, 3] | pIC50 [2, 3] | melting point | pIC50 [1, 4] | pIC50 [2, 4] | Structure (SMILES) |
| --- | --- | --- | --- | --- | --- |
| – | – | 110 to 111 °C | – | 7.22 | O=C(NO)[C@H]1Cc2c([nH]c3ccccc23)CN1S(=O)(=O)c1ccc(Oc2ccccc2)cc1 [Example 32, R-2-(4-phenoxybenzenesulfonyl)-1,2,3,4-tetrahydro-9H-pyrido(3,4-b)-indole-3-hydroxamic acid] |
| – | – | – | 8.52 | 7.70 | COc1ccc(S(=O)(=O)N2Cc3[nH]c4ccccc4c3C[C@@H]2C(=O)NO)cc1 [Example 31, R-2-(4-methoxybenzenesulfonyl)-1,2,3,4-tetrahydro-9H-pyrido-(3,4-b)-indole-3-hydroxamic acid] |
| – | – | – | 6.52 | 5.70 | O=C(NO)C1Cc2ccccc2CN1S(=O)(=O)c1ccc(C(O)c2ccccc2)cc1 (centres unmarked) [Example 19] |
| – | – | 226 to 228 °C | – | – | O=C(O)[C@H]1Cc2cc3c(cc2CN1S(=O)(=O)c1ccc(Oc2ccccc2)cc1)OCO3 [Example 54] |
| – | – | – | 8.10 | 7.10 | COc1ccc(S(=O)(=O)N2Cc3cc([N+](=O)[O-])ccc3CC2C(=O)NO)cc1 (centres unmarked) [Example 23] |
| – | – | – | – | 5.22 | CCOC(=O)Nc1cccc(S(=O)(=O)N2Cc3ccccc3CC2C(=O)NO)c1 (centres unmarked) [Example 5] |
| 8.00 | 6.30 | 205 °C | – | – | O=C(O)[C@H]1Cc2ccccc2CN1S(=O)(=O)c1ccc(-c2ccccc2)cc1 [Example 34] |
| – | – | – | 7.15 | 6.40 | O=C(NO)[C@H]1Cc2ccccc2CN1S(=O)(=O)C1=CC2=CC=CCC2C=C1 (some centres unmarked) [Example 11] |
| – | – | – | 8.00 | 7.00 | O=C(NO)[C@H]1Cc2ccccc2CN1S(=O)(=O)c1ccc2oc3ccccc3c2c1 [Example 15] |
| – | – | 125 °C (dec.) | 7.15 | 6.52 | O=C(NO)[C@H]1Cc2c([nH]c3ccccc23)CN1S(=O)(=O)c1ccc(N2CCOCC2)cc1 [Example 33, R-2-(4-morpholinobenzenesulfonyl)-1,2,3,4-tetrahydro-9H-pyrido(3,4-b)-indole-3-hydroxamic acid] |
| – | – | – | 8.70 | 7.52 | O=C(NO)[C@H]1Cc2ccccc2CN1S(=O)(=O)c1ccc(-c2ccc(Cl)cc2)cc1 [Example 3] |
| – | – | – | 6.52 | 5.22 | O=C(NO)C1Cc2ccccc2CN1S(=O)(=O)N1CCOCC1 (centres unmarked) [Example 26, 2-(Morpholinosulfonyl)-1,2,3,4-tetrahydroisoquinoline-3-hydroxamic acid] |
| – | – | – | 6.70 | 6.40 | CN(C)c1cccc2c(S(=O)(=O)N3Cc4ccccc4C[C@@H]3C(=O)NO)cccc12 [Example 12] |
| 6.52 | 5.52 | – | – | – | O=C(c1ccccc1)c1ccc(S(=O)(=O)N2Cc3ccccc3C[C@@H]2C(=O)O)cc1 [Example 45] |
| – | – | – | 7.00 | 6.15 | CC(=O)Nc1ccc(S(=O)(=O)N2Cc3ccccc3CC2C(=O)NO)cc1 (centres unmarked) [Example 4] |
| – | – | – | 6.52 | 6.40 | COc1ccc(S(=O)(=O)N2Cc3c(cc(OC)c(OC)c3OC)CC2C(=O)NO)cc1 (centres unmarked) [Example 25, 2-(4-Methoxybenzenesulfonyl)-6,7,8-trimethoxy-1,2,3,4-tetrahydroisoquinoline-3-hydroxamic acid] |
| 7.52 | 6.70 | – | – | – | O=C(O)[C@H]1Cc2ccccc2CN1S(=O)(=O)c1ccc(OCc2ccc(F)cc2)cc1 [Example 44] |

| Structure (SMILES) | pIC50 [1, 3] | pIC50 [2, 3] | melting point | pIC50 [1, 4] | pIC50 [2, 4] |
| --- | --- | --- | --- | --- | --- |
| O=C(O)[C@H]1Cc2cc([N+](=O)[O-])ccc2CN1S(=O)(=O)c1ccc(-c2ccc(F)cc2)cc1 [Example 53] | 7.70 | 6.30 | – | – | – |
| O=C(O)[C@H]1Cc2ccc([N+](=O)[O-])cc2CN1S(=O)(=O)c1ccc(-c2ccc(Cl)cc2)cc1 [Example 50] | 7.52 | 6.22 | – | – | – |
| O=C(O)[C@H]1Cc2ccc([N+](=O)[O-])cc2CN1S(=O)(=O)c1ccc(-c2ccc(F)cc2)cc1 [Example 52] | 7.40 | 6.00 | – | – | – |
| O=C(O)[C@H]1Cc2cc([N+](=O)[O-])ccc2CN1S(=O)(=O)c1ccc(-c2ccc(Cl)cc2)cc1 [Example 51] | 7.70 | 6.30 | – | – | – |
